Experimental data as given in patent US10722514B2 (FLX Bio, Inc., priority 2017, dated 2020).
pIC50: −log10 of the molar value. Structures can show the parent of a compound that is named as a salt. Where two headings read alike, the source gives them in different places.

Biological target: T1, recombinant full-length USP7 (Homo sapiens, UniProt Q93009)
T1 construct: A 25 μl reaction volume containing recombinant full-length USP7 (62 pM)
Experiment: USP7-mediated ubiquitin-rhodamine cleavage assay
Assay type: biochemical
Conditions: recombinant full-length USP7 62 pM, ubiquitin-rhodamine 100 nM, 1 hour reaction at room temperature
Procedure, shortened: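 Rhodamine fluorescence read-out after acetic acid stop; IC50 by 4-parameter nonlinear regression. Enzyme at 62 pM, substrate ubiquitin-rhodamine 100 nM final, 1 h at room temperature in the dark, after 30 min compound preincubation. Buffer: HEPES pH 7.3, NaCl, TCEP, BSA; 1% DMSO.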

[1] = 30-minute pre-incubation, read-out: Potency (USP7 IC50)
[2] = 30-minute incubation with compound, read-out: Potency: USP7 IC50
[3] = 30-minute incubation, read-out: Potency (USP7 IC50)

T1 sequence (Q93009 whole entry): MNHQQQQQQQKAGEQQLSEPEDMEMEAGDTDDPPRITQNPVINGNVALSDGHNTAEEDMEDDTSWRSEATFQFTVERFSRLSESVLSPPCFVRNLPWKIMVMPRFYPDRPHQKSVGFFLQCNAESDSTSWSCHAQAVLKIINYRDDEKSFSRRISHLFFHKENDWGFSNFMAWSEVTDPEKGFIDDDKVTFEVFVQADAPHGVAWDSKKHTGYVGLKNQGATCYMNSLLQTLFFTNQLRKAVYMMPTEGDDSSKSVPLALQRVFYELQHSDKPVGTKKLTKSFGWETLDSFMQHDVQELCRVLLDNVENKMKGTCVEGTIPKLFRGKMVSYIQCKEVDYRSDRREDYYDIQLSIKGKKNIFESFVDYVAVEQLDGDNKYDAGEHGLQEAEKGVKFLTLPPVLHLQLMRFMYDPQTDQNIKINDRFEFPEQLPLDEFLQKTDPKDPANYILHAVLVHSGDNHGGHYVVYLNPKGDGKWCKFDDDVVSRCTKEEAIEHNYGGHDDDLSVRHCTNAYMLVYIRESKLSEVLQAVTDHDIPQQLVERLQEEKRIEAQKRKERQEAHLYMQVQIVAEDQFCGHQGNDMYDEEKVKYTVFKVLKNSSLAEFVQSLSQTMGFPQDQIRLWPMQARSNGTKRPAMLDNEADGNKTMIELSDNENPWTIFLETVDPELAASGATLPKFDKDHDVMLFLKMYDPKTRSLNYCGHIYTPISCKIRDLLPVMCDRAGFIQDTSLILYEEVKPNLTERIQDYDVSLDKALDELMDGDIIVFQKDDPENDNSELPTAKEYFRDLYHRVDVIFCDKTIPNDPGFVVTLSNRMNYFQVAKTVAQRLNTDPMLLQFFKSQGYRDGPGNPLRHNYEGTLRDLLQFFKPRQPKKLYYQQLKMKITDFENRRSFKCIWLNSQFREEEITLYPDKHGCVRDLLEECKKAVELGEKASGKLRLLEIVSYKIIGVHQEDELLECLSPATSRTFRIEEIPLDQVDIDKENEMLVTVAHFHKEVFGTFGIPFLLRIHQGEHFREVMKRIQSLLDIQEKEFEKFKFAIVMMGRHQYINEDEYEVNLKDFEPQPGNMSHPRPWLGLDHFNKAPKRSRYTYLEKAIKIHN

SMILES | pIC50 [1] | pIC50 [2] | other results
Cc1cc(Cl)cc(-c2ccnc3cc(CN4C(=O)CCC4=O)sc23)c1O[C@H]1CCCN(CC(=O)O)C1 [Example 579, 2-[(3S)-3-[4-chloro-2-[2-[(2,5-dioxopyrrolidin-1-yl)methyl]thieno[3,2-b]pyridin-7-yl]-6-methyl-phenoxy]-1-piperidyl]acetic acid] | > 6.00 | – | –
Cc1cc(Cl)cc(-c2ncnc3cc(Cn4c(=O)ccn(C)c4=O)sc23)c1O[C@H]1CCCNC1 [Example 251, (S)-3-((4-(5-Chloro-3-methyl-2-(piperidin-3-yloxy)phenyl)thieno[3,2-d]pyrimidin-6-yl)methyl)-1-methylpyrimidine-2,4(1H,3H)-dione] | – | > 6.00 | –
Cc1cc(Cl)cc(-c2ccnc3cc(Cn4c(=O)ccn(C)c4=O)sc23)c1OC1CCCN(CCO)C1 (stereo not drawn) [Example 506, 3-[[7-[5-chloro-2-[[1-(2-hydroxyethyl)-3-piperidyl]oxy]-3-methyl-phenyl]thieno[3,2-b]pyridin-2-yl]methyl]-1-methyl-pyrimidine-2,4-dione] | > 6.00 | – | –
CCC(O)c1cc2nccc(-c3cc(Cl)cc(C)c3OC3CCCCNC3)c2s1 (stereo not drawn) [Example 265, 1-(7-(2-(Azepan-3-yloxy)-5-chloro-3-methylphenyl)thieno[3,2-b]pyridin-2-yl)propan-1-ol] | – | 5.00 to 6.00 | –
Cc1cc(Cl)cc(-c2ncnc3cc(CN4C(=O)C5CC5C4=O)sc23)c1O[C@@H]1CN(C)C[C@@H]1F (stereo partly drawn) [Example 353, 3-[[4-[5-chloro-2-[(3R,4S)-4-fluoro-1-methyl-pyrrolidin-3-yl]oxy-3-methyl-phenyl]thieno[3,2-d]pyrimidin-6-yl]methyl]-3-azabicyclo[3.1.0]hexane-2,4-dione dihydrochloride] | – | > 6.00 | –
Cc1cc(Cl)cc(-c2ncnc3cc(CN4C(=O)C5CC5C4=O)sc23)c1O[C@H]1CCCNC1 (stereo partly drawn) [Example 245, 3-((4-(5-Chloro-3-methyl-2-(((S)-piperidin-3-yl)oxy)phenyl)thieno[3,2-d]pyrimidin-6-yl)methyl)-3-azabicyclo[3.1.0]hexane-2,4-dione] | – | > 6.00 | –
Cc1cc(Cl)cc(-c2ncnc3cc(CN4C(=O)C5CCCCC5C4=O)sc23)c1O[C@@H]1CNC[C@@H]1F (stereo partly drawn) [Example 159, 2-((4-(5-Chloro-2-(((3R,4S)-4-fluoropyrrolidin-3-yl)oxy)-3-methylphenyl)thieno[3,2-d]pyrimidin-6-yl)methyl)hexahydro-1H-isoindole-1,3(2H)-dione] | – | 5.00 to 6.00 | –
Cc1cc(Cl)cc(-c2ccnc3cc(Cn4c(=O)ccn(CC(F)(F)F)c4=O)sc23)c1O[C@@H]1CNC[C@@H]1C(F)F [Example 620, 3-[[7-[5-chloro-2-[(3S,4S)-4-(difluoromethyl)pyrrolidin-3-yl]oxy-3-methyl-phenyl]thieno[3,2-b]pyridin-2-yl]methyl]-1-(2,2,2-trifluoroethyl)pyrimidine-2,4-dione] | > 6.00 | – | –
Cc1cc(Cl)cc(-c2ccnc3cc(Cn4c(=O)ccn(CC(F)(F)F)c4=O)sc23)c1OC(C)C [Example 702, 3-[[7-(5-chloro-2-isopropoxy-3-methyl-phenyl)thieno[3,2-b]pyridin-2-yl]methyl]-1-(2,2,2-trifluoroethyl)pyrimidine-2,4-dione] | – | – | pIC50 [3]: 5.00 to 6.00
Cc1cc(Cl)cc(-c2ccnc3cc(CN4C(=O)CCC4C(F)(F)F)sc23)c1OC1CCNCC1 (stereo not drawn) [Example 201, 1-((7-(5-Chloro-3-methyl-2-(piperidin-4-yloxy)phenyl)thieno[3,2-b]pyridin-2-yl)methyl)-5-(trifluoromethyl)pyrrolidin-2-one] | – | 5.00 to 6.00 | –
Cc1cc(Cl)cc(-c2ccnc3cc(CN4C(=O)C5CCCC5C4=O)sc23)c1O[C@@H]1CNC[C@@H]1F (stereo partly drawn) [Example 141, 2-((7-(5-Chloro-2-(((3R,4S)-4-fluoropyrrolidin-3-yl)oxy)-3-methylphenyl)thieno[3,2-b]pyridin-2-yl)methyl)tetrahydrocyclopenta[c]pyrrole-1,3(2H,3aH)-dione] | – | > 6.00 | –
Cc1cc(Cl)cc(-c2ccnc3cc(Cn4c(=O)ccn(CC(F)(F)F)c4=O)sc23)c1OC1CCNCC1 [Example 568, 3-[[7-[5-chloro-3-methyl-2-(4-piperidyloxy)phenyl]thieno[3,2-b]pyridin-2-yl]methyl]-1-(2,2,2-trifluoroethyl)pyrimidine-2,4-dione] | > 6.00 | – | –
Cc1cc(Cl)cc(-c2ccnc3c(F)c(CN4C(=O)CCC4=O)sc23)c1O[C@H]1CCCNC1 [Example 163, (S)-1-((7-(5-Chloro-3-methyl-2-(piperidin-3-yloxy)phenyl)-3-fluorothieno[3,2-b]pyridin-2-yl)methyl)pyrrolidine-2,5-dione] | – | > 6.00 | –
Cc1cc(Cl)cc(-c2ccnc3cc(CN4C(=O)CN(C)C4=O)sc23)c1OCC1(C)CNC1 [Example 25, 3-((7-(5-Chloro-3-methyl-2-((3-methylazetidin-3-yl)methoxy)phenyl)thieno[3,2-b]pyridin-2-yl)methyl)-1-methylimidazolidine-2,4-dione] | – | > 6.00 | –
Cc1cc(Cl)cc(-c2ccnc3cc(Cn4c(=O)ccn(CC(F)(F)F)c4=O)sc23)c1O[C@@H]1CNC[C@@H]1F [Example 485, 3-[[7-[5-chloro-2-[(3R,4S)-4-fluoropyrrolidin-3-yl]oxy-3-methyl-phenyl]thieno[3,2-b]pyridin-2-yl]methyl]-1-(2,2,2-trifluoroethyl)pyrimidine-2,4-dione] | > 6.00 | – | –
OCc1cc2nccc(-c3cc(Cl)ccc3OCC3CNC3)c2s1 [Example 29, (7-(2-(Azetidin-3-ylmethoxy)-5-chlorophenyl)thieno[3,2-b]pyridin-2-yl)methanol] | – | 5.00 to 6.00 | –
Cc1cc(Cl)cc(-c2ccnc3cc(Cn4c(=O)ccn(C)c4=O)sc23)c1O[C@@H]1CCN(C)C[C@@H]1C [Example 457, 3-[[7-[5-chloro-2-[[(3S,4R)-1,3-dimethyl-4-piperidyl]oxy]-3-methyl-phenyl]thieno[3,2-b]pyridin-2-yl]methyl]-1-methyl-pyrimidine-2,4-dione] | > 6.00 | – | –
Cc1cc(Cl)cc(-c2ccnc3cc(Cn4c(=O)ccn(C)c4=O)sc23)c1O[C@@H]1CCN[C@H]1C(=O)O [Example 602, (2R,3R)-3-[4-chloro-2-methyl-6-[2-[(3-methyl-2,6-dioxo-pyrimidin-1-yl)methyl]thieno[3,2-b]pyridin-7-yl]phenoxy]pyrrolidine-2-carboxylic acid] | > 6.00 | – | –
Cc1cc(Cl)cc(-c2ncnc3cc(Cn4c(=O)ccn(CC(F)(F)F)c4=O)sc23)c1OC1CC2CNC1C2 (stereo not drawn) [Example 539, 3-[[4-[2-(3-azabicyclo[2.2.1]heptan-5-yloxy)-5-chloro-3-methyl-phenyl]thieno[3,2-d]pyrimidin-6-yl]methyl]-1-(2,2,2-trifluoroethyl)pyrimidine-2,4-dione] | > 6.00 | – | –
Cc1cc(Cl)cc(-c2ccnc3cc(Cn4c(=O)ccn(CC(F)(F)F)c4=O)sc23)c1OC1CCNCC1(C)C (stereo not drawn) [Example 616, 3-[[7-[5-chloro-2-[(3,3-dimethyl-4-piperidyl)oxy]-3-methyl-phenyl]thieno[3,2-b]pyridin-2-yl]methyl]-1-(2,2,2-trifluoroethyl)pyrimidine-2,4-dione; 2,2,2-trifluoroacetic acid] | > 6.00 | – | –
Cc1cc(Cl)cc(-c2ncnc3cc(CN4C(=O)C5C(C4=O)C5(C)C)sc23)c1OC1CC(N)C1 (stereo not drawn) [Example 358, 3-[[4-[2-(3-aminocyclobutoxy)-5-chloro-3-methyl-phenyl]thieno[3,2-d]pyrimidin-6-yl]methyl]-6,6-dimethyl-3-azabicyclo[3.1.0]hexane-2,4-dione; 2,2,2-trifluoroacetic acid] | – | > 6.00 | –
Cc1cc(Cl)cc(-c2ncnc3cc(CN4C(=O)C5CC5C4=O)sc23)c1OC1CCCNC1 (stereo not drawn) [Example 412, 3-[[4-[5-chloro-3-methyl-2-(3-piperidyloxy)phenyl]thieno[3,2-d]pyrimidin-6-yl]methyl]-3-azabicyclo[3.1.0]hexane-2,4-dione] | > 6.00 | – | –
Cc1cc(Cl)cc(-c2ccnc3cc(Cn4c(=O)ccn(C)c4=O)sc23)c1OC1CCNCC1 [Example 195, 3-((7-(5-Chloro-3-methyl-2-(piperidin-4-yloxy)phenyl)thieno[3,2-b]pyridin-2-yl)methyl)-1-methylpyrimidine-2,4(1H,3H)-dione] | – | > 6.00 | –
Cc1cc(Cl)cc(-c2ccnc3cc(Cn4c(=O)ccn(C5CCC5)c4=O)sc23)c1O[C@H]1CCCNC1 [Example 477, 3-[[7-[5-chloro-3-methyl-2-[[(3S)-3-piperidyl]oxy]phenyl]thieno[3,2-b]pyridin-2-yl]methyl]-1-cyclobutyl-pyrimidine-2,4-dione] | > 6.00 | – | –
Cc1cc(Cl)cc(-c2ccnc3cc(Cn4c(=O)ccn(CC(F)(F)F)c4=O)sc23)c1O[C@H]1CC[C@H](N)C1 [Example 596, 3-[[7-[2-[(1S,3S)-3-aminocyclopentoxy]-5-chloro-3-methyl-phenyl]thieno[3,2-b]pyridin-2-yl]methyl]-1-(2,2,2-trifluoroethyl)pyrimidine-2,4-dione; 2,2,2-trifluoroacetic acid] | > 6.00 | – | –
Cc1cc(Cl)cc(-c2ccnc3cc(CN4C(=O)CCC4=O)sc23)c1OCC1(F)CNC1 [Example 15, 1-((7-(5-Chloro-2-((3-fluoroazetidin-3-yl)methoxy)-3-methylphenyl)thieno[3,2-b]pyridin-2-yl)methyl)pyrrolidine-2,5-dione] | – | > 6.00 | –
Cc1cc(Cl)cc(-c2ccnc3cc(CN4C(=O)CN(CC(F)(F)F)C4=O)sc23)c1O[C@H]1CCCNC1 [Example 693, 3-[[7-[5-chloro-3-methyl-2-[[(3S)-3-piperidyl]oxy]phenyl]thieno[3,2-b]pyridin-2-yl]methyl]-1-(2,2,2-trifluoroethyl)imidazolidine-2,4-dione; 2,2,2-trifluoroacetic acid] | – | – | pIC50 [3]: > 6.00
